The target in experiment [1] is T1, Acetolactate synthase (Nicotiana tabacum, UniProt C0L093).
T1 sequence (C0L093 whole entry): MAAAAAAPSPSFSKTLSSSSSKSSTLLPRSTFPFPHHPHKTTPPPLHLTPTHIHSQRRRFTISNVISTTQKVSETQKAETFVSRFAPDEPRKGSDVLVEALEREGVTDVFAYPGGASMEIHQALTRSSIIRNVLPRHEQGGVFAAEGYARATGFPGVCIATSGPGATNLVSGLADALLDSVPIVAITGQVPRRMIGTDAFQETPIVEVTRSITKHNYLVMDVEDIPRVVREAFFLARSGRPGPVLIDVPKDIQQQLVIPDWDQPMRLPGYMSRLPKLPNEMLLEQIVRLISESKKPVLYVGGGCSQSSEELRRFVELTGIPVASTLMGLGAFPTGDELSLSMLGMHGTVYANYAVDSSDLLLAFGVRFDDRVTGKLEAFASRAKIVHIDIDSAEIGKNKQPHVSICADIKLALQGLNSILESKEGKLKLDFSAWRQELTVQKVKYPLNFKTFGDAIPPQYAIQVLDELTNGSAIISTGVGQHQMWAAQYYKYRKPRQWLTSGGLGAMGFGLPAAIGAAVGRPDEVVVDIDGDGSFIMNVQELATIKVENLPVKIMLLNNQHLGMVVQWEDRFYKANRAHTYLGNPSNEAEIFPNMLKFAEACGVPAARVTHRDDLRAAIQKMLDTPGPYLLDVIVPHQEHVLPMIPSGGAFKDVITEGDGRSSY
Briefly: Inhibition of wild type Nicotiana tabacum (tobacco) GST-tagged acetolactate synthase expressed in Escherichia coli by modified Westerfeld method.

Experiment [2] deals with T2, Acetolactate synthase (Nicotiana tabacum) (UniProt C0L093).
T2 sequence (whole entry): T1 sequence (C0L093 whole entry)
Briefly: Inhibition of wild type Nicotiana tabacum (tobacco) GST-tagged acetolactate synthase expressed in Escherichia coli at 1 mM by modified Westerfeld method.

Experiment [3] concerns the target Acetolactate synthase (Nicotiana tabacum, UniProt C0L093). Briefly: Inhibition of wild type Nicotiana tabacum (tobacco) S4-Hra GST-tagged acetolactate synthase mutant expressed in Escherichia coli by modified Westerfeld method.

Calls of active or inactive are those of the source. No cut-off for these calls is given here.

By IC50 is commonly meant the midpoint of a concentration-inhibition curve. For the compound `Cc1cc(C)n2nc(S(=O)(=O)Nc3c(Br)ccc4cccnc34)nc2n1`, in experiment [1], it took 8.7 nM to reach half-maximal inhibition (IC50).

As for `Cc1ccn2nc(S(=O)(=O)Nc3nccc4ccccc34)nc2n1`, the inhibition result in experiment [2] is “inactive”.

For `Cc1cc(C)n2nc(S(=O)(=O)Nc3nccc4ccccc34)nc2n1`, the inhibition entry in experiment [2] is “inactive”.

In experiment [1], `Cc1cc(C)n2nc(S(=O)(=O)Nc3c(Cl)ccc4cccnc34)nc2n1` showed an IC50 of 9.4 nM.

Regarding `Cc1cc(C)n2nc(S(=O)(=O)Nc3cccc4cccnc34)nc2n1`, the IC50 in experiment [1] amounted to 32.3 nM.

In turn, `Cc1ccn2nc(S(=O)(=O)Nc3c(Cl)ccc4cccnc34)nc2n1` returned an IC50 in experiment [1] of 37.2 nM.

In turn, `Cc1ccn2nc(S(=O)(=O)Nc3c(C#N)ccc4cccnc34)nc2n1` gave an IC50 in experiment [1] of 64 nM. This IC50 is about 1.7-fold higher than that of the compound before.

`Cc1ccn2nc(S(=O)(=O)Nc3c(Br)ccc4cccnc34)nc2n1` came in with an IC50 in experiment [1] of 19.2 nM.

Take `Cc1ccn2nc(S(=O)(=O)Nc3cccc4cnccc34)nc2n1`: in experiment [2], the inhibition result was “inactive”.

As to `Cc1ccn2nc(S(=O)(=O)Nc3c(F)cccc3F)nc2n1` [FLUMETSULAM], the figures for the IC50 in experiment [3] and in experiment [1] were 939 nM and 31.6 nM, respectively.

Regarding `Cc1cc(C)n2nc(S(=O)(=O)Nc3cccc4ncccc34)nc2n1`, the inhibition entry in experiment [2] was “inactive”.

On to `Cc1ccn2nc(S(=O)(=O)Nc3c(F)ccc4cccnc34)nc2n1`, for which the IC50 in experiment [3] was 16500 nM; in experiment [1] it was 17.1 nM.

Take `Cc1cc(C)n2nc(S(=O)(=O)Nc3c(F)ccc4cccnc34)nc2n1`: the IC50 in experiment [3] was 14700 nM; in experiment [1], 7.7 nM.

As for `Cc1cc(C)n2nc(S(=O)(=O)Nc3cccc4cnccc34)nc2n1`, the inhibition entry in experiment [2] is “inactive”.

In the case of `Cc1ccn2nc(S(=O)(=O)Nc3cccc4ncccc34)nc2n1`, in experiment [2], the inhibition result is “inactive”.
